From patent publication US7371734B2, “Oligonucleotide compositions and their use for the modulation of immune responses” (Bioniche Life Sciences Inc., priority 2002, dated 2008) come the findings set out here.

Marks after values point to notes of the source that are not given here.

What all share (assay type): cell-based
For data set [1], the system named is Human dendritic cells. The data set is described as follows: Induction of IFN-gamma production by DC (ELISA). The note with it: 100 μg, 48 hours. The essentials: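 Dendritic cells from three donors (1.0×10^5 cells/ml) were incubated 48 h with 100 μg of each polynucleotide. IFN-gamma in culture supernatant was measured by ELISA. Values are fold increase over untreated control cells.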
In general terms: ELISA stands for enzyme-linked immunosorbent assay.

For data set [2], the system named is Human dendritic cells. The data set is described as follows: CD86 levels at the DC cell surface (flow cytometry). Particulars: 100 μg, 48 hours. The essentials: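 Human DCs (from donors B and C) at 1.0×10^5 cells/ml were exposed 48 h to 100 μg of 6-base polynucleotides. Surface CD86 was measured by flow cytometry with a PE-conjugated anti-CD86 mAb. Values are % CD86^hi DC after treatment.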
Background: A flow cytometer gives signals particle by particle.

In data set [3] the test system is Human dendritic cells. In words: MHC-II levels at the DC cell surface (flow cytometry). The note with it: DC from individual B; 100 μg, 48 hours. The essentials:
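Dendritic cells from one donor were seeded at 1.0×10^5 cells/ml and treated for 48 h with 100 μg of 6-base polynucleotides. Surface MHC II was then measured by flow cytometry with a FITC-conjugated anti-MHC II antibody. Values are the percentage of MHC II^hi DC.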

The test system of data set [4] is Human dendritic cells. The data set is described as follows: Increase in cell size and granularity of DC (flow cytometry). Particulars: 100 μg polynucleotide, 48 hours. Put shortly:
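Human dendritic cells from three donors, seeded at 1.0×10^5 cells/ml and exposed 48 hours to 100 μg of 6-base 3-OH, 5-OH polynucleotides. Flow cytometry; percentage of cells with forward scatter >500 units and side scatter >400 units.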

Data set [5] concerns Human dendritic cells. In words: Induction of IL-1beta production by DC (ELISA). Particulars: 100 μg, 48 hours. Put shortly:
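Cells from three donors, seeded at 1.0×10^5 cells/ml, were exposed for 48 hours to 100 μg of 6-base polynucleotides. IL-1beta in culture supernatant measured by ELISA; values are fold increase over untreated control cells.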

Data set [6] concerns Human dendritic cells. In words: CD80 levels at the DC cell surface (flow cytometry). The note with it: 100 μg, 48 hours. The essentials:
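Human dendritic cells from two donors, at 1.0×10^5 cells/ml, were exposed 48 h to 100 μg of 6-base polynucleotides. Surface CD80 was measured by flow cytometry with a FITC anti-CD80 antibody. Values are % CD80^hi DC.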

Data set [7] has as its system Human dendritic cells. The data set is described as follows: CD40 levels at the DC cell surface (flow cytometry). The note with it: 100 μg, 48 hours. The essentials: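 DCs from two donors, seeded at 1.0×10^5 cells/ml, were exposed for 48 h to 100 μg of 6-base polynucleotides. Surface CD40 was then measured by flow cytometry with a FITC anti-CD40 mAb. Values are the percentage of CD40^hi DC, meaning above-baseline CD40 expression.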

The test system of data set [8] is Human dendritic cells. The data set is described as follows: Endocytosis of FITC-dextran by DC. The note with it: DC from individual B, 100 μg, 24 hours, untreated control = 100. On the procedure:
Human dendritic cells were obtained from Clonetics (San Diego, Calif., USA) and were cultured in the medium recommended by Clonetics. DC were obtained from three different individuals (see Table 1). Major histocompatability typing was performed on each of these individuals and several of the HLA (human leukocyte antigens) types are shown.
DC from individual B were seeded in 1.0 ml at 1.0×10^5 cells/ml in 6-well flat-bottomed tissue culture plates for 24 hours with 1 mg/ml of FITC-dextran (20 kDa; Sigma-Aldrich) in the absence or presence of 100 μg of 6 base N2A, N2B, N3A, N3B, N5A, N5B, and N6B polynucleotides at 4° C. (control cell surface binding of FITC-dextran) and 37° C. (to assess endocytosis). Cells were washed three times with ice-cold phosphate buffered saline and analyzed by flow cytometry using CELLQuest Pro. Results are expressed as relative endocytic rate (normalized Δ Mean Fluorescence Value (Δ MFV)). Δ MFV=MFV of DC exposed to FITC-dextran at 37° C.−MFV of DC exposed to FITC-dextran at 4° C. Δ MFV=(ΔMFVsequence/ΔMFVcontrol)×100.

For the substance 5′GGGAGG3′ [N6A] (unmodified DNA), the “IFN-gamma production by DC (fold increase compared to untreated DC)” value in data set [1] (DC isolated from individual A), in data set [1] (DC isolated from individual B) and in data set [1] (DC isolated from individual C) was 1.0 fold each time. The “The percentage of CD86^hi DC following treatment” value in data set [2] (DC from individual B) is given as 24** %; in data set [2] (DC from individual C), 18%. The “The percentage of MHC-II^hi DC following treatment” value in data set [3] is given as 25%. For the same substance, the results for the “Percentage of DC showing a FCS > 500 units and a SSC > 400 units” value in data set [4] (DC isolated from individual A), in data set [4] (DC isolated from individual B) and in data set [4] (DC isolated from individual C) were 9%, 22% and 21%, respectively. The “IL-1beta production by DC (fold increase compared to untreated DC)” value in data set [5] (DC isolated from individual A) turned out to be 1.0 fold; in data set [5] (DC isolated from individual B), 1.1 fold; in data set [5] (DC isolated from individual C) it was 0.9 fold. For the same substance, the “The percentage of CD80^hi DC following treatment” value is 15% in data set [6] (DC from individual B) and 17% in data set [6] (DC from individual C). The “The percentage of CD40^hi DC following treatment” value in data set [7] (DC from individual B) is on record as 35** %; in data set [7] (DC from individual C), 15%.

For “5′GGGAGG3′ [N6B] (DNA, backbone not given here; further chemistry not fully specified)”, the “IFN-gamma production by DC (fold increase compared to untreated DC)” value was determined as 1.1 fold in data set [1] (DC isolated from individual A), 1.0 fold in data set [1] (DC isolated from individual B) and 1.1 fold in data set [1] (DC isolated from individual C). Moreover, the “The percentage of CD86^hi DC following treatment” value worked out at 15% in data set [2] (DC from individual B) and 33% in data set [2] (DC from individual C). In addition, the “The percentage of MHC-II^hi DC following treatment” value in data set [3] turned out to be 27%. Further, the “Relative endocytic rate (normalized Δ MFV)” value in data set [8] was 23. Also, the “Percentage of DC showing a FCS > 500 units and a SSC > 400 units” value worked out at 4% in data set [4] (DC isolated from individual A), 17% in data set [4] (DC isolated from individual B) and 36% in data set [4] (DC isolated from individual C). The entries for the “IL-1beta production by DC (fold increase compared to untreated DC)” value in data set [5] (DC isolated from individual A), in data set [5] (DC isolated from individual B) and in data set [5] (DC isolated from individual C) were 1.0 fold, 1.1 fold and 1.0 fold, respectively. Further, the “The percentage of CD80^hi DC following treatment” value in data set [6] (DC from individual B) and in data set [6] (DC from individual C) was 4% throughout. For the same substance, the “The percentage of CD40^hi DC following treatment” value in data set [7] (DC from individual B) is listed as 28** %; in data set [7] (DC from individual C), 15%.

For 5′GGGTGG3′ [N3A], the “IFN-gamma production by DC (fold increase compared to untreated DC)” value in data set [1] (DC isolated from individual A), in data set [1] (DC isolated from individual B) and in data set [1] (DC isolated from individual C) was 1.0 fold throughout. Also, the results for the “The percentage of CD86^hi DC following treatment” value in data set [2] (DC from individual B) and in data set [2] (DC from individual C) were 16% and 37** %, respectively. Also, the “The percentage of MHC-II^hi DC following treatment” value in data set [3] came out at 23%. Besides, the “Relative endocytic rate (normalized Δ MFV)” value in data set [8] came out at 156. The “Percentage of DC showing a FCS > 500 units and a SSC > 400 units” value in data set [4] (DC isolated from individual A) worked out at 8%; in data set [4] (DC isolated from individual B) it was 15%; in data set [4] (DC isolated from individual C), 31%. The results for the “IL-1beta production by DC (fold increase compared to untreated DC)” value in data set [5] (DC isolated from individual A), in data set [5] (DC isolated from individual B) and in data set [5] (DC isolated from individual C) were 1.1 fold, 1.1 fold and 1.0 fold, respectively. Also, the “The percentage of CD80^hi DC following treatment” value amounted to 12% in data set [6] (DC from individual B) and 18% in data set [6] (DC from individual C). For the same substance, the “The percentage of CD40^hi DC following treatment” value in data set [7] (DC from individual B) was 36** %; in data set [7] (DC from individual C) it was 20%.

For the substance 5′GGGTGG3′ [N3B], the “IFN-gamma production by DC (fold increase compared to untreated DC)” value in data set [1] (DC isolated from individual A) came out at 2.0 fold; in data set [1] (DC isolated from individual B), 4.5 fold; in data set [1] (DC isolated from individual C), 1.3 fold. For the same substance, the results for the “The percentage of CD86^hi DC following treatment” value in data set [2] (DC from individual B) and in data set [2] (DC from individual C) were 30** % and 39** %, respectively. Further, in data set [3], the “The percentage of MHC-II^hi DC following treatment” value is on record as 25%. Besides, the “Relative endocytic rate (normalized Δ MFV)” value in data set [8] was 211. Besides, the entries for the “Percentage of DC showing a FCS > 500 units and a SSC > 400 units” value in data set [4] (DC isolated from individual A), in data set [4] (DC isolated from individual B) and in data set [4] (DC isolated from individual C) were 28%, 25% and 28%, respectively. For the same substance, the entries for the “IL-1beta production by DC (fold increase compared to untreated DC)” value in data set [5] (DC isolated from individual A), in data set [5] (DC isolated from individual B) and in data set [5] (DC isolated from individual C) were 1.7 fold, 4.4 fold and 2.1 fold, respectively. Besides, the “The percentage of CD80^hi DC following treatment” value worked out at 5% in data set [6] (DC from individual B) and 3% in data set [6] (DC from individual C). Further, the “The percentage of CD40^hi DC following treatment” value is given as 33** % in data set [7] (DC from individual B) and 14% in data set [7] (DC from individual C).
